melting point [°C] | Structure (SMILES)
130 to 131 | CCN1C(=O)C(C)(C)C(=O)N(C)c2cc(CN(CCN3C(=O)CCc4ccccc43)Cc3cccnc3C)ccc21
130 to 132 | Oc1cc(-c2ncnc(C(F)(F)F)c2Cl)c(F)cc1Cl
220 to 221 | CC1CC(=O)NN=C1c1ccc(N2CCN(Cc3ccccc3)CC2)c([N+](=O)[O-])c1 (stereo unspecified)
181 to 184 | CC1Cc2c(O)cc(C(=O)O)cc2O1 (stereo unspecified)
86 to 90 | Cc1cccc(C2(O)CCN(C)CC2)c1
178 to 180 | CC(=O)OC1CSC(Oc2ccc(-c3ccc(C(F)(F)F)cc3)nc2)C(OC(C)=O)C1OC(C)=O (stereo unspecified)
118 | C[C@H](c1ccc(F)cc1)N1CCN(c2cc(Oc3cccc4ncc(N)nc34)ncn2)CC1
174 to 175 | CNC(=O)c1cccc(NC(=O)Cc2ccc(C)cc2)c1
115 to 119 | CCOC(=O)c1nc(CCS(=O)(=O)c2ccc(Cl)cc2)no1
81 to 83 | C#C[C@]1(C)CCc2c(C)c(O)c(C)c(C)c2O1
164 | CN1CCN(C(=O)c2c(Br)c(Br)c([N+](=O)[O-])c3c2OCCO3)CC1
183 to 185 | Cc1oc2ccc(C3CC(=O)NC(=O)C3)cc2c1C
160 to 165 | CCCC1(CCC)c2cc(-c3ccc(Br)s3)ccc2-c2ccc(-c3ccc(Br)s3)cc21
153 to 154 | CCOC(=O)c1nc[nH]c1F
189 to 194 | COC(=O)c1cccc(NC(=O)NCC(=O)N(CC(=O)N2CCCC2)c2ccccc2C(=O)c2ccccc2)c1
104 to 105 | Cc1ccsc1C1CC(=O)c2c(C)ccnc2C1 (stereo unspecified)
78 to 80 | CCOC(=O)[C@H](Cc1cccc(Oc2ccc3ccccc3c2)c1)NC(=O)C(F)(F)F
81 to 84 | O=C(O)Cc1cc(Br)cc(Br)c1OCCc1ccccc1
91 to 97 | O=[N+]([O-])c1cnn(-c2c(Cl)cc(C(F)(F)F)cc2Cl)c1
125 | COc1ccc(-c2nn(CC(C)C)c(=O)cc2-c2ccc(OC)c(F)c2)cc1
191 to 212 | O=C1Nc2ccccc2NC2CCCC12 (stereo unspecified)

melting point [°C] | Structure (SMILES)
74 to 76 | CCCC(=O)C(=CNc1ccccc1OC)C(=O)OCC
206 to 207 | CC(C)OC(=O)N1CCN(c2ccn3ncc(-c4cccn(C)c4=O)c3n2)CC1
245 to 246 | Cc1cccc(Nc2ncnc3ccc(-n4cnc5ccccc54)cc23)c1
130 to 140 | O=C1NCCOC1C(O)c1ccccc1 (stereo unspecified)
87 to 92 | COc1ccc(CC(=O)c2ccccc2)cc1
124 to 126 | C#CCOCCn1cnc2cnc3ccccc3c21
57 to 59 | CCCOC(=O)Nc1ccc(OCC2CC2(Cl)Cl)c(Cl)c1 (stereo unspecified)
163 to 164 | CC(=O)NC(=N)NCCSCc1[nH]cnc1C
88 to 90 | COc1ccc(N2c3ccccc3CCC2c2ccccc2)cc1 (stereo unspecified)
161 to 163 | O=C(O)C1c2cc(F)ccc2-c2ccc(F)cc21
83 to 84 | CC(C)(C)OC(=O)C1CCCN1C(=O)NN (stereo unspecified)
137 | CCCCCCCCCCCCCCCCCCOc1ccc(C=Cc2ccc(S(=O)(=O)CCCO)cc2)cc1
133 to 139 | c1ccc(C(c2ccccc2)N2CCN(CCCCCCNc3ccc4nncn4n3)CC2)cc1
252 to 255 | Nc1ncnc2ncn(Cc3ccccc3)c12
53 to 55 | COC(=O)CC/C(C)=C/Cc1c(OC)c(C)c2c(c1OS(=O)(=O)C(F)(F)F)C(=O)OC2
200 to 203 | CC(C)c1ccc(CCNc2ncnc3ncccc23)cc1
199 to 201 | COc1ccc(OC)c2c1CC(C(=O)O)CC2=O (stereo unspecified)
231 | CC(=O)N1CCC2(CC1)CN=C(c1cc3sc(C)c(N(C)S(=O)(=O)c4cccs4)c3[nH]1)S2
134 to 135 | C[C@H](N)C(=O)NC(C)(Cc1ccc(F)cc1)c1ccc(F)cc1 (stereo partly specified)
80 to 82 | Brc1ccc(-c2cnc(COCc3cc4ccccc4o3)o2)cc1
102 to 104 | COc1cccc(Oc2ccc3nc(C(C)=O)c(O)cc3c2)c1

Second part, the compound before the results:

Structure (SMILES) | melting point [°C]
COc1ccc(-c2cc(CBr)c(=O)n(Cc3ccc(F)cc3)n2)cc1F | 120 to 125
COC(=O)NCc1cccc(-c2ccccc2)c1C | 91 to 94
O=C(OCC1CC1)c1ncn2c1[C@@H]1CCCN1C(=O)c1ccccc1-2 | 189 to 190
CC1c2cccc3c2N(CC3)c2ccccc2N1C(=O)CCN1CCN(c2ccccc2)CC1 (stereo unspecified) | 139 to 141
CC1CC(=O)Nc2ccc(Br)cc21 (stereo unspecified) | 190
CC1(OC(=O)c2ncn3c2C2CCCN2C(=O)c2c(Cl)cccc2-3)CCCC1 (stereo unspecified) | 190 to 191
CCOC(=O)NC[C@H]1CN(c2ccc3c(c2)CCCc2cnoc2-3)C(=O)O1 | 181 to 183
Cc1c(C(=O)c2sc(Nc3ccc(S(N)(=O)=O)cc3)nc2N)ncn1C | 293 to 294
CCOC(=O)c1cc(C)c(Cl)nc1C(=O)OCC | 84 to 86
O=C(Cl)c1cscc1S(=O)(=O)Cl | 78 to 79
Cc1cc(C)c(C2Cc3cc(NC(=O)CC(C)(C)C)cc(Cc4ccc(C(C)C)cc4)c3O2)cc1CO (stereo unspecified) | 136 to 137
COCC(=O)Nc1c(C(=O)c2cccc(Cl)c2)[nH]c2cc(Cl)ccc12 | 154 to 155
CN(C)c1ccc(C(=O)CCCN2CCC(C(O)(c3ccccc3)c3ccccc3)CC2)cc1 | 148 to 150
Cc1ccccc1N1CCN(S(=O)(=O)c2ccc([N+](=O)[O-])cc2)CC1 | 176 to 178
Cc1[nH]c2ccc(CCN(CC(C)C)CC(C)C)cc2c1C(=O)OCc1ccccc1 | 134 to 135
COc1cc(NC(=O)n2cc(F)c(=O)[nH]c2=O)cc(OC)c1OC | 168 to 170
CC(C)N(Cc1ccc2cc(NC(=O)N3CCC(c4ccc(Cl)cc4)CC3)ccc2n1)C(C)C | 201 to 203
CCCCCCCCCCCCCCCCCCOCC(O)Cn1cnc2c(N)ncnc21 (stereo unspecified) | 151 to 152
CC(=O)OC1CC2=CCC3C4CCC(C(C)CCC=C(C)C)C4(C)CCC3C2(C)C(OC(C)=O)C1 (stereo unspecified) | 133 to 134
CCCCc1oc2ccccc2c1-c1ncc(-c2ccc3cc(OC(Cc4ccccc4)C(=O)OC)ccc3c2)o1 (stereo unspecified) | 122 to 124

Structure (SMILES) | melting point [°C]
CCCCNC(=O)NS(=O)(=O)c1ccc(CCNC(=O)N2CCC(C)CC2=O)cc1 (stereo unspecified) | 159 to 161
C=C1CCc2c(c3ccccc3n2C)C1=O | 127 to 129
CC(C)N(CCCCOCC(=O)O)c1nnc(-c2ccccc2)c(-c2ccccc2)n1 | 128 to 130
CCc1cc(O)n2ncc(CC)c2n1 | > 310
Cn1nc(-c2ccccc2)c2ccc(Cl)nc21 | 94 to 96
CONS(=O)(=O)c1ccc(C)cc1 | 116 to 117
C=Cc1[nH]c(=O)c2c(ccc3nc(Nc4c(Cl)cccc4Cl)n(C)c32)c1C | > 300
COC(=O)Cc1ccc(CNC(=O)C2Cc3ccccc3N2S(=O)(=O)c2ccc(-c3cccc(C(F)(F)F)c3)cc2)cc1 (stereo unspecified) | 74
CC(C)C(=O)CCC(=O)c1ccc(F)cc1 | 47 to 49
CCS(=O)(=O)N[C@H](C(=O)NCCc1ccc(OCc2ccccc2)cc1)C(C)C | 133 to 134
COc1cc(N2C(=O)CCC2=O)ccc1OCCCN1CCN(c2ccccc2)CC1 | 166 to 167
COc1ccc(N2CCN(c3c(C)c(C)c4c(c3C)C(O)(c3ccc(OC)cc3)C(C)(C)O4)CC2)cc1 (stereo unspecified) | 157 to 159
COc1ccc(C(O)(c2ccc(OC)cc2)C2CCN(CCC3CN(C)C(=O)O3)CC2)cc1 (stereo unspecified) | 145 to 147
COc1ccccc1Cc1c(Cl)ncnc1Cl | 95 to 96
CNC(=O)c1cc(-c2ccc(OC)cc2)nn(Cc2ccc([N+](=O)[O-])cc2)c1=O | 199
O=C(Nc1ccccn1)C(=O)OC1CCCCC1 | 62 to 64
CNC(=O)c1cc(-c2ccc(OC)cc2)nn(CC=C(C)C)c1=O | 104
CC(C)(C)C(O)C(=CC1CCCCC1)n1cncn1 (stereo unspecified) | 145 to 148
CSC(=S)NN=Cc1nc(Cc2ccccc2)[nH]c1C | 207 to 210
C=Cc1ccc(COc2ccc(CSCCC(=O)O)cc2)cc1 | 135 to 136

Structure (SMILES) | melting point [°C]
CCc1cc2c(s1)-n1c(C)nnc1C(CCCC(=O)O)N=C2c1ccc(Cl)cc1 (stereo unspecified) | 185 to 187
CCOC(=O)c1c(NC2CC(C)(C)NC(C)(C)C2)cc(C)nc1C | 89 to 90
Cc1cc(Oc2ccc(C#N)cc2C(F)(F)F)n[nH]1 | 123 to 125
O=C1Nc2ccccc2N(C(=O)N2CCCC(CCN3CCCCC3)C2)c2ncccc21 (stereo unspecified) | 168 to 169
CCOC(=O)c1nc2c(=O)[nH]c3cc(C(F)(F)F)ccc3n2c1CNc1ccc2c(c1)OCO2 | > 250
CCc1cc2c3c(ccc2[nH]1)OCC(CN1CC=C(c2c[nH]c4ccc(F)cc24)CC1)O3 (stereo unspecified) | 81 to 82
CSc1sc(C(N)=O)c2c1-c1nn(C)cc1CC2 | 285 to 286
Cc1cccc(C)c1-c1cc(C(N)=O)ccc1C(N)=O | 246 to 248
COc1ccnc(CSc2nc3cscc3[nH]2)c1 | 172 to 175
OCCN1CCC(=C2c3ccccc3CCn3ncnc32)CC1 | 154
CC1=NC(=NO)SC1(C)C | 151 to 153
N#Cc1cnc(Nc2ccc(OCCn3cnnc3)cc2)nc1-c1cccs1 | 228
COc1ccc(-c2nc3cc(F)ccc3s2)cc1OC(=O)c1cccc([N+](=O)[O-])c1 | 212
COc1ccc2c(C)n[nH]c(=O)c2c1 | 203 to 205
COc1cc2c(Nc3cccc(Cl)c3F)ncnc2cc1OC1CCN(C(=O)[C@@H](O)C(C)(C)C)CC1 | 205 to 206
CCOC(=O)c1cnc(-c2cc([N+](=O)[O-])ccc2OCC)[nH]c1=O | 222 to 224
CC(C)(C)OC(=O)C(CO)NC(=O)c1coc(-c2cocn2)n1 (stereo unspecified) | 85 to 87
NC1([C@@H]2CCN(c3ccc4c(=O)c(C(=O)O)cn([C@@H]5C[C@@H]5F)c4c3)C2)CC1 | 251 to 253
Cn1c2cccc(Br)c2c2c(CC(=O)N3CCCC3)nn(-c3ccccc3)c(=O)c21 | 209 to 210
